According to ChEMBL document CHEMBL4811216, “Chemotherapy for human schistosomiasis: how far have we come? What's new? Where do we go from here?” (RSC Med Chem, 2020):

Tests used:
[1] = target: T1, Cathepsin B1 isotype 1 (Schistosoma mansoni) (UniProt Q8MNY2); experiment: Inhibition of Schistosoma mansoni cathepsin B1 using Z-Phe-Arg-aminomethylcoumarin as substrate at 100 uM by fluorescence method relative to control
T1 sequence (whole entry): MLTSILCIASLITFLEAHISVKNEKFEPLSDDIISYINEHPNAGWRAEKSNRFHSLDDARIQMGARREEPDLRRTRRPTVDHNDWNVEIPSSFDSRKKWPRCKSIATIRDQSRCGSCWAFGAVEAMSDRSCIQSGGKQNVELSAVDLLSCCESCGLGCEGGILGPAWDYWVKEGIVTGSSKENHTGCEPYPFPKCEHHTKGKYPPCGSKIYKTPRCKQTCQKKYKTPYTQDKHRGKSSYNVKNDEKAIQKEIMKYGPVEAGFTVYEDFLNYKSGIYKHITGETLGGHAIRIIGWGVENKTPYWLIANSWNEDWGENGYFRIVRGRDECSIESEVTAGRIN

[2] = system: Schistosoma mansoni; experiment: Antischistosomal activity against Schistosoma mansoni BH infected in Balb/c mouse assessed as reduction in worm burden at 400 mg/kg, po measurement after 2 weeks; type: functional; parameters: scale not given: the % may be the effect or the level left
[3] = system: Schistosoma mansoni; experiment: Antischistosomal activity against Schistosoma mansoni LE assessed as worm mortality at 20 uM incubated for 72 hrs by microscopic method relative to control; type: functional
[4] = system: Schistosoma mansoni; experiment: Antischistosomal activity against male Schistosoma mansoni assessed as worm killing effect at 100 uM measured after 24 hrs by phase-contrast microscopy relative to control; type: functional
[5] = system: Schistosoma mansoni; experiment: Antischistosomal activity against Schistosoma mansoni infected in Swiss albino mouse assessed as reduction in worm burden at 20 mg/kg, po administered for 5 days relative to control; type: functional; parameters: scale not given: the % may be the effect or the level left; settings: time 5 day
[6] = system: Schistosoma mansoni; experiment: Antischistosomal activity against Schistosoma mansoni infected in Swiss albino mouse assessed as reduction in intestinal tissue egg burden at 20 mg/kg, po administered for 5 days relative to control; type: functional; parameters: scale not given: the % may be the effect or the level left; settings: time 5 day
[7] = system: Schistosoma mansoni; experiment: Potentiation of praziquantel-induced antischistosomal activity against Schistosoma mansoni infected in Swiss albino mouse assessed as worm burden at 20 mg/kg, po administered for 5 days (reference value: 60%); type: functional; settings: time 5 day
[8] = system: Schistosoma mansoni; experiment: Potentiation of praziquantel-induced antischistosomal activity against Schistosoma mansoni infected in Swiss albino mouse assessed as intestinal egg burden at 20 mg/kg, po administered for 5 days (reference value: 67%); type: functional; settings: time 5 day
[9] = target: T2, Histone deacetylase 8 (Homo sapiens, UniProt Q9BY41); experiment: Inhibition of human HDAC8 using Fluor de Lys as substrate by fluorimetric method
T2 sequence (Q9BY41 whole entry): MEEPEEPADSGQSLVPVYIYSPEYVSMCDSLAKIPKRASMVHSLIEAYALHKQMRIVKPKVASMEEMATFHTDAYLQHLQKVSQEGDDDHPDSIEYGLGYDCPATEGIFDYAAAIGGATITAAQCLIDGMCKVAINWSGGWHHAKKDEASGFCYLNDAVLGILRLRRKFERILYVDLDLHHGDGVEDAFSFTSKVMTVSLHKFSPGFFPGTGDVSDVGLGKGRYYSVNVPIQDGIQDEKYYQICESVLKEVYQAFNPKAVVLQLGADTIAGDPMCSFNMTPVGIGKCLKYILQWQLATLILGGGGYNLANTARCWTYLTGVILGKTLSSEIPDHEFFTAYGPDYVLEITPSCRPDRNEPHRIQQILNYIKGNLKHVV

[10] = target: T3, Histone deacetylase 8 (Schistosoma mansoni, UniProt A5H660); experiment: Inhibition of Schistosoma mansoni HDAC8 using fluorogenic substrate by fluorescence method
T3 sequence (A5H660 whole entry): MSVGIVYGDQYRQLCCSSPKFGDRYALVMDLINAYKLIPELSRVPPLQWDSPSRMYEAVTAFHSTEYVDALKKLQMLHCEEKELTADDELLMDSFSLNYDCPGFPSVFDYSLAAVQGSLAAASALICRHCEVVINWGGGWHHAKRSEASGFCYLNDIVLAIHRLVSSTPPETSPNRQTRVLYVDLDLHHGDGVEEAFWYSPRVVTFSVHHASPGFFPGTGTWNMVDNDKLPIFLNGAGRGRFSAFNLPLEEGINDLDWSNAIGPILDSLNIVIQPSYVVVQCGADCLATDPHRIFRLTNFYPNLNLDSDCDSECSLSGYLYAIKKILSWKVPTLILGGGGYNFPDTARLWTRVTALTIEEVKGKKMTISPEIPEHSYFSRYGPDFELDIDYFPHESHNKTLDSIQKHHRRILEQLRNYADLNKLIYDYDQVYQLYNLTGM

[11] = target: T4, HDAC1 (histone deacetylase 1) (Homo sapiens, UniProt Q13547); experiment: Inhibition of human HDAC1 at 200 uM using Z-Lys(Ac)-AMC as substrate by fluorimetric method relative to control; settings: HDAC1 enzyme, probe Z-Lys(Ac)-AMC
[12] = target: T5, Protein deacetylase HDAC6 (Homo sapiens, UniProt Q9UBN7); experiment: Inhibition of human HDAC6 using Z-Lys(Ac)-AMC as substrate by fluorimetric method
T5 sequence (Q9UBN7 whole entry): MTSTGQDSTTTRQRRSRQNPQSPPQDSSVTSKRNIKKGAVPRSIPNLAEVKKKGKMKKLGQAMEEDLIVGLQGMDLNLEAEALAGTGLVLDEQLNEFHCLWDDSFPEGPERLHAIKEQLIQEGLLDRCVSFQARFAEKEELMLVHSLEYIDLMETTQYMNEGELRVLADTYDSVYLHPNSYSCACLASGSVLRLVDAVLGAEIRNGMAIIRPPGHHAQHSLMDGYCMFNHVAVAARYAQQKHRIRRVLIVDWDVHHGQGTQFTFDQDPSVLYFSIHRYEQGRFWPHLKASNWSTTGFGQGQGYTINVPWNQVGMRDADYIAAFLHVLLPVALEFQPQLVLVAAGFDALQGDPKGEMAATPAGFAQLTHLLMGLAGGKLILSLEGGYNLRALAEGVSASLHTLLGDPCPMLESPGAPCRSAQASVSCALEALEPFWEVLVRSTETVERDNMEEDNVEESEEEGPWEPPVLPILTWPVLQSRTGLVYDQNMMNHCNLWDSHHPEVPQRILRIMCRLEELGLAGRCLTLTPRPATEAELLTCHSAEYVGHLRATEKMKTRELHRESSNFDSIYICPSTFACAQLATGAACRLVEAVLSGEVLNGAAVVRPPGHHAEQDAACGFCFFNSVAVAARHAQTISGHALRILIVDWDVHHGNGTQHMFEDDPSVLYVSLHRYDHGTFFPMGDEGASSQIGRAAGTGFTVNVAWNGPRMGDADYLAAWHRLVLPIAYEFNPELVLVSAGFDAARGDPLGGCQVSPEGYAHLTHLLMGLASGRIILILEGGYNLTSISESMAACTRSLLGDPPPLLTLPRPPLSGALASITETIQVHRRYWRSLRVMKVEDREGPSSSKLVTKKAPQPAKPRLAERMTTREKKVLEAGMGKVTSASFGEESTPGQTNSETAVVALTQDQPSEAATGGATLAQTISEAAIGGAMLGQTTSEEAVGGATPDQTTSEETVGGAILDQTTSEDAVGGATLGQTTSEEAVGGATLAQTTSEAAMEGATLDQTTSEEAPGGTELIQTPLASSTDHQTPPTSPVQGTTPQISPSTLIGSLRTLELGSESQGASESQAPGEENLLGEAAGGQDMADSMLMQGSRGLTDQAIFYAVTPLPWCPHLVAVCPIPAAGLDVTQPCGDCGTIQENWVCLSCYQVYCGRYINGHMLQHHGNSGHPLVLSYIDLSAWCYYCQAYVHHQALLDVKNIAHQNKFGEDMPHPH

[13] = target: T4, HDAC1 (histone deacetylase 1); experiment: Inhibition of human HDAC1 using Z-Lys(Ac)-AMC as substrate at 1 uM by fluorimetric method relative to control; settings: HDAC1 enzyme, probe Z-Lys(Ac)-AMC
[14] = system: Schistosoma mansoni; experiment: Antischistosomal activity against Schistosoma mansoni infected in NMRI mouse assessed as worm burden reduction at 200 mg/kg, po administered as single dose measured after 16 to 18 days; type: functional, organism-based; parameters: scale not given: the % may be the effect or the level left; settings: time 16-18 day
[15] = system: Schistosoma mansoni; experiment: Antischistosomal activity against Schistosoma mansoni Schistosomula assessed as worm death at 10 uM incubated for 24 hrs relative to control; type: functional
[16] = system: Schistosoma mansoni; experiment: Antischistosomal activity against juvenile Schistosoma mansoni assessed as worm death at 10 uM incubated for 120 hrs relative to control; type: functional
[17] = system: Schistosoma mansoni; experiment: Antischistosomal activity against adult Schistosoma mansoni assessed as worm death at 10 uM incubated for 120 hrs relative to control; type: functional
[18] = target: T6, Thioredoxin glutathione reductase (Schistosoma mansoni, UniProt Q962Y6); experiment: Inhibition of Schistosoma mansoni thioredoxin glutathione reductase incubated for 30 mins by DTNB assay
T6 sequence (Q962Y6 whole entry): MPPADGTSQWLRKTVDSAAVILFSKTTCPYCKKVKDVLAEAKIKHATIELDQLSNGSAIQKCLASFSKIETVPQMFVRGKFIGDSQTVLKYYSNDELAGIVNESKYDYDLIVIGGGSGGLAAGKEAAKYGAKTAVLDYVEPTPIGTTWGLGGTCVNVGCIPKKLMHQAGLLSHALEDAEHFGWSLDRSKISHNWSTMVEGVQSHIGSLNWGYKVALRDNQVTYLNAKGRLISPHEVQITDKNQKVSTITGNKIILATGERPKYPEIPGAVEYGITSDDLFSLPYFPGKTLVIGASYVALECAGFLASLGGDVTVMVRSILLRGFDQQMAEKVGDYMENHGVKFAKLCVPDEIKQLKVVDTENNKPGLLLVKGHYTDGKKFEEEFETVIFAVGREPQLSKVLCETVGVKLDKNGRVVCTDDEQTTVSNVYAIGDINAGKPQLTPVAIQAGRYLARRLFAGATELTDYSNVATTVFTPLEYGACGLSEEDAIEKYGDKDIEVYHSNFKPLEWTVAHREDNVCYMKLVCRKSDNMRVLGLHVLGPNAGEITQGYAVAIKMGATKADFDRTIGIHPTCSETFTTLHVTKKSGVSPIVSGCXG

[19] = system: Schistosoma japonicum; experiment: Antischistosomal activity against Schistosoma japonicum assessed as worm death at 10 uM incubated for 120 hrs relative to control; type: functional; settings: Schistosoma japonicum
[20] = system: Schistosoma haematobium; experiment: Antischistosomal activity against Schistosoma haematobium assessed as worm death at 10 uM incubated for 120 hrs relative to control; type: functional
[21] = system: Schistosoma mansoni; experiment: Schistosomicidal-activity against Schistosoma mansoni LE assessed as seperation of worm couples at 25 uM measured within 120 hrs relative to control; type: functional

T4 sequence (Q13547 whole entry): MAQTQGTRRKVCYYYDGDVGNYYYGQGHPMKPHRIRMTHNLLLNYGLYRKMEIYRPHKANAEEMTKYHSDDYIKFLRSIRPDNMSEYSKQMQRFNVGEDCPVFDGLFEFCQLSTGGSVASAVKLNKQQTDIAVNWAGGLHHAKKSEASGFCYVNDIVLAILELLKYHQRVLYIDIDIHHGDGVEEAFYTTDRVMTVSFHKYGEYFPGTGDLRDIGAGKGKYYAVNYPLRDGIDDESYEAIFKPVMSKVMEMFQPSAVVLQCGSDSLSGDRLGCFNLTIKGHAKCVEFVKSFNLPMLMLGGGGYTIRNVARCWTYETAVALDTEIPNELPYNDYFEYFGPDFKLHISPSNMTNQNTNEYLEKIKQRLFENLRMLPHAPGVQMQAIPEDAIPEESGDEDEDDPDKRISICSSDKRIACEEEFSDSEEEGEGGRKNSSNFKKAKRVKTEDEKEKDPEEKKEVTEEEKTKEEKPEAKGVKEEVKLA

O=C(c1ccc(CCl)c([N+](=O)[O-])c1)N1CCOCC1
inhibition [1]: < 27%

COc1cc(O)ccc1C(=O)/C=C/c1ccccc1
Activity [2]: 31.8%

CN(C)c1ccc(/C=C2\NC(=O)N(Cc3c(F)cccc3Cl)C2=S)cc1
Activity [3]: 100%

COc1ccc(-c2nc(-c3ccccc3OC)[nH]c2-c2ccc(OC)cc2)cc1
Activity [4]: 33%
Activity [5]: <17%
Activity [6]: <17%
Activity [7]: 88%
Activity [8]: 83%

CN1CCN(NC(=O)c2cccc(C(=O)NO)c2)CC1
IC50 [9]: 1310 nM
IC50 [10]: 750 nM
inhibition at 200 µM [11]: 15.3%
IC50 [12]: 7110 nM
inhibition at 1 µM [13]: < 10%

Fc1ccc(Cl)cc1-c1nc(Nc2ccncc2)c2nccnc2n1
Activity [14]: 51.6%

COc1ccc([N+](=O)[O-])c(S(=O)(=O)c2ccc(Cl)cc2)n1
mortality at 10 µM [15]: 100%
mortality at 10 µM [16]: 57%
mortality at 10 µM [17]: 67%
IC50 [18]: 60 nM
mortality at 10 µM [19]: 30%
mortality at 10 µM [20]: 48%

COc1cc([C@@H]2OC(=O)[C@@H]3[C@H]2C(=O)O[C@H]3c2cc(OC)c(O)c(OC)c2)cc(OC)c1O
Activity [21]: 100%

COc1ccc(C(Nc2cc(C)ccn2)c2ccc3ccc(C)nc3c2O)cc1 (configuration not stated)
mortality at 10 µM [15]: 20%
mortality at 10 µM [16]: 24%
mortality at 10 µM [17]: 53%
IC50 [18]: 130 nM
mortality at 10 µM [19]: 56%

CCCC(=O)OCCNC(=O)c1ccc(CCl)c([N+](=O)[O-])c1
inhibition [1]: < 27%
